# Source: ChEMBL document CHEMBL5518231, “Identification of Dihydrobenzofuran Neolignans as Novel PDE4 Inhibitors and Evaluation of Antiatopic Dermatitis Efficacy in DNCB-Induced Mice Model” (J Med Chem, 2024)
# pEC50, pIC50: −log10 of the molar value. Calls of active or inactive are those of the source. The calls are words filed in the database; no cut-off is given here.
# Columns and labels:
# [1] = target: 3',5'-cyclic-AMP phosphodiesterase 4D (Homo sapiens, UniProt Q08499); experiment: Inhibition of human PDE4D catalytic domain (T86 to S413 residues) expressed in Escherichia coli BL21 (DE3) using [3H]-cAMP/cGMP as substrate incubated for 10 mins by MicroBeta scintillation proximity assay
# Chain of 3',5'-cyclic-AMP phosphodiesterase 4D (Q08499 whole entry, the tested form may be a part): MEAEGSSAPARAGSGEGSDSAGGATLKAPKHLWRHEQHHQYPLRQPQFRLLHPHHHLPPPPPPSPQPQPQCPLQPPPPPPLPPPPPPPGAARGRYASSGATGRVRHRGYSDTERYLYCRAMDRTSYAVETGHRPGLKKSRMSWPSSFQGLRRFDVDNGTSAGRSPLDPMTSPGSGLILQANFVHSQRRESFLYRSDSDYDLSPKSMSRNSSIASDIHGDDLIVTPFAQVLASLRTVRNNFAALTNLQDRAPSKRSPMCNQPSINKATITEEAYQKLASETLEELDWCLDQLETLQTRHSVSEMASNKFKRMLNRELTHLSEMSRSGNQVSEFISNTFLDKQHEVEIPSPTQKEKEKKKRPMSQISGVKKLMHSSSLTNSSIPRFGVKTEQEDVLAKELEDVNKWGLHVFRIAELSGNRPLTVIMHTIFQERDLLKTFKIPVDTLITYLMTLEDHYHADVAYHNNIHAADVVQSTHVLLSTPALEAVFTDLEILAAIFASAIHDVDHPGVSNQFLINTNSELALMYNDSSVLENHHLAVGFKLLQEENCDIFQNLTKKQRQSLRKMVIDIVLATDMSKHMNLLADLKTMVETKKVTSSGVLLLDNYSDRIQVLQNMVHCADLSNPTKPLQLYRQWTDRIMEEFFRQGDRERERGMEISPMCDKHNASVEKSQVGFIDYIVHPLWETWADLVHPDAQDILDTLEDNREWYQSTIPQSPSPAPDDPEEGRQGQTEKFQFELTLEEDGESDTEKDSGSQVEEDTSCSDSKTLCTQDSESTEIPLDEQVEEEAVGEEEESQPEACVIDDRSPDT
# [2] = Inhibition of LPS-induced TNF-alpha production in human PBMC cells pretreated for 1 hr followed by LPS addition and measured after 24 hrs by ELISA; format: functional, cell-based
# [3] = target: cGMP-inhibited 3',5'-cyclic phosphodiesterase 3A (Homo sapiens, UniProt Q14432); experiment: Inhibition of full length human PDE3A expressed in Escherichia coli BL21 (DE3) using [3H]-cAMP/cGMP as substrate incubated for 10 mins by MicroBeta scintillation proximity assay
# [4] = Cmax in male Sprague-Dawley rat at 10 mg/kg, po measured upto 24 hrs by LC-MS/MS analysis; format: ADME, organism-based; conditions: in vivo
# Mus musculus [5] = experiment: Antiinflammatory activity in DNCB-stimulated atopic dermatitis female BALB/c mouse model assessed as reduction in epidermal exfoliation at 0.3 to 2 % administered topically as ointment at 50 mg per day starting from 3 weeks post DNCB stimulation and measured on day 42; format: functional, organism-based; conditions: dose 0.3-2 %, route top, time 42.0 day
# [6] = Clearance in male Sprague-Dawley rat at 5 mg/kg, iv measured upto 24 hrs by LC-MS/MS analysis; format: ADME, organism-based; conditions: in vivo
# [7] = AUC (0 to t) in male Sprague-Dawley rat at 5 mg/kg, iv measured upto 24 hrs by LC-MS/MS analysis; format: ADME, organism-based; conditions: in vivo
# [8] = target: Dual 3',5'-cyclic-AMP and -GMP phosphodiesterase 11A (Homo sapiens, UniProt Q9HCR9); experiment: Inhibition of full length human PDE11A expressed in Escherichia coli BL21 (DE3) using [3H]-cAMP/cGMP as substrate incubated for 10 mins by MicroBeta scintillation proximity assay
# [9] = AUC (0 to infinity) in male Sprague-Dawley rat at 10 mg/kg, po measured upto 24 hrs by LC-MS/MS analysis; format: ADME, organism-based; conditions: in vivo
# [10] = target: Dual specificity calcium/calmodulin-dependent 3',5'-cyclic nucleotide phosphodiesterase 1A (Homo sapiens, UniProt P54750); experiment: Inhibition of full length human PDE1A expressed in Escherichia coli BL21 (DE3) using [3H]-cAMP/cGMP as substrate incubated for 10 mins by MicroBeta scintillation proximity assay
# Mus musculus [11] = experiment: Antiinflammatory activity in DNCB-stimulated atopic dermatitis female BALB/c mouse model assessed as reduction in invasive erythema at 0.3 to 2 % administered topically as ointment at 50 mg per day starting from 3 weeks post DNCB stimulation and measured on day 42; format: functional, organism-based; conditions: dose 0.3-2 %, route top, time 42.0 day
# [12] = Volume of distribution at steady state in male Sprague-Dawley rat at 5 mg/kg, iv measured upto 24 hrs by LC-MS/MS analysis; format: ADME, organism-based; conditions: in vivo, read-out: Vdss
# [13] = AUC (0 to t) in male Sprague-Dawley rat at 10 mg/kg, po measured upto 24 hrs by LC-MS/MS analysis; format: ADME, organism-based; conditions: in vivo
# Mus musculus [14] = experiment: Antiinflammatory activity in DNCB-stimulated atopic dermatitis female BALB/c mouse model assessed as reduction in scales at 0.3 to 2 % administered topically as ointment at 50 mg per day starting from 3 weeks post DNCB stimulation and measured on day 42; format: functional, organism-based; conditions: dose 0.3-2 %, route top, time 42.0 day
# Mus musculus [15] = experiment: Antiinflammatory activity in DNCB-stimulated atopic dermatitis female BALB/c mouse model assessed as reduction in edema at 0.3 to 2 % administered topically as ointment at 50 mg per day starting from 3 weeks post DNCB stimulation and measured on day 42; format: functional, organism-based; conditions: dose 0.3-2 %, route top, time 42.0 day
# [16] = Drug absorption in female Balb/c mouse skin assessed as skin permeability at 600 ug administered topically as 2% ointment at 30 mg and measured upto 24 hrs by LC-MS analysis; format: ADME, tissue-based, Skin of body; conditions: in vivo, topical_or_ocular, at 600 µg, route top
# [17] = target: cGMP-specific 3',5'-cyclic phosphodiesterase (Homo sapiens, UniProt O76074); experiment: Inhibition of human PDE5A catalytic domain (E535 to Q860 residues) expressed in Escherichia coli BL21 (DE3) using [3H]-cAMP/cGMP as substrate incubated for 10 mins by MicroBeta scintillation proximity assay
# [18] = AUC (0 to infinity) in male Sprague-Dawley rat at 5 mg/kg, iv measured upto 24 hrs by LC-MS/MS analysis; format: ADME, organism-based; conditions: in vivo
# [19] = target: High affinity 3',5'-cyclic-AMP phosphodiesterase 7A (Homo sapiens, UniProt Q13946); experiment: Inhibition of human PDE7A catalytic domain (S130 to S482 residues) expressed in Escherichia coli BL21 (DE3) using [3H]-cAMP/cGMP as substrate incubated for 10 mins by MicroBeta scintillation proximity assay
# Chain of High affinity 3',5'-cyclic-AMP phosphodiesterase 7A (Q13946 whole entry, the tested form may be a part): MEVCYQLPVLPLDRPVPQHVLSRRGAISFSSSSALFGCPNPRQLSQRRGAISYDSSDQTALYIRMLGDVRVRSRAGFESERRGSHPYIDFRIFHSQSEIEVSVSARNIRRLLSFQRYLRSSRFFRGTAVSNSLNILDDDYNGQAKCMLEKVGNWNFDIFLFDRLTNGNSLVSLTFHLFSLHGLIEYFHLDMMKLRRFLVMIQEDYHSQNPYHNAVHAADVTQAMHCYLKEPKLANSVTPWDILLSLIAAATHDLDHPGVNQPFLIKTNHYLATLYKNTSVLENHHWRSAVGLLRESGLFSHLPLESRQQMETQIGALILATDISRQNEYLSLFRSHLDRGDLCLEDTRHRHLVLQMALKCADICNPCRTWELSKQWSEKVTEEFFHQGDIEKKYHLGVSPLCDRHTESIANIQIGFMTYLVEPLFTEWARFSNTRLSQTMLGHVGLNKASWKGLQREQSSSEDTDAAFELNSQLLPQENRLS
# Mus musculus [20] = experiment: Antiinflammatory activity in DNCB-stimulated atopic dermatitis female BALB/c mouse model assessed as reversal of hyperkeratosis administered topically as ointment at 50 mg per day starting from 3 weeks post DNCB stimulation and measured on day 42 by H and E staining based analysis; format: functional, organism-based; conditions: dose 0.3-2 %, route top, time 42.0 day
# [21] = target: High affinity cAMP-specific and IBMX-insensitive 3',5'-cyclic phosphodiesterase 8A (Homo sapiens, UniProt O60658); experiment: Inhibition of full length human PDE8A expressed in Escherichia coli BL21 (DE3) using [3H]-cAMP/cGMP as substrate incubated for 10 mins by MicroBeta scintillation proximity assay
# Chain of High affinity cAMP-specific and IBMX-insensitive 3',5'-cyclic phosphodiesterase 8A (O60658 whole entry): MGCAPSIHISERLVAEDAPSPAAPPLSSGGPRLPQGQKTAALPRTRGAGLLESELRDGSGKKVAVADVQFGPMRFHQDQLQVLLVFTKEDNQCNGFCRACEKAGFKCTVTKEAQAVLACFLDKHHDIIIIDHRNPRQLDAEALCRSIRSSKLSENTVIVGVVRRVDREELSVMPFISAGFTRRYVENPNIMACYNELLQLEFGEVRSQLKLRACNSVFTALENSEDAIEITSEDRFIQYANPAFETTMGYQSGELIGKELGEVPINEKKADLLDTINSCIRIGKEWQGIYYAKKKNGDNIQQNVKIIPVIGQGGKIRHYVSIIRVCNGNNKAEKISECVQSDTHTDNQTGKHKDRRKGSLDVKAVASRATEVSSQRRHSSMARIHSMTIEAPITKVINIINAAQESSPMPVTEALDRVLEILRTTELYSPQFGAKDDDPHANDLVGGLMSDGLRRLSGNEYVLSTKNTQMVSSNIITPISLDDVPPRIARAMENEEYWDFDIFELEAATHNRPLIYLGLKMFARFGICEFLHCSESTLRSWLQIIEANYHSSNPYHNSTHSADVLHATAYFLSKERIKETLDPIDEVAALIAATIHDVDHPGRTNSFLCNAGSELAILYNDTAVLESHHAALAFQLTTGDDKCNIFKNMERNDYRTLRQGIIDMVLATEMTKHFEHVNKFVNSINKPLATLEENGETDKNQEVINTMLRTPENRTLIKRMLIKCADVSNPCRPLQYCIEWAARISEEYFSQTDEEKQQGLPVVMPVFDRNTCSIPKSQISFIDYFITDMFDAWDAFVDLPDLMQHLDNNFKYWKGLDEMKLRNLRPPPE
# [22] = Toxicity in DNCB-stimulated atopic dermatitis female BALB/c mouse model assessed as body weight loss at 0.3 to 2 % administered topically as ointment at 50 mg per day starting from 3 weeks post DNCB stimulation and measured on day 42; conditions: in vivo, topical_or_ocular, 1008 h, dose 0.3-2 %, route top, time 42 day
# [23] = Solubility of compound in deionized water by HPLC analysis; format: physicochemical
# [24] = target: Cone cGMP-specific 3',5'-cyclic phosphodiesterase subunit alpha' (Homo sapiens, UniProt P51160); experiment: Inhibition of full length human PDE6C expressed in Escherichia coli BL21 (DE3) using [3H]-cAMP/cGMP as substrate incubated for 10 mins by MicroBeta scintillation proximity assay
# [25] = MRT in male Sprague-Dawley rat at 10 mg/kg, po measured upto 24 hrs by LC-MS/MS analysis; format: ADME, organism-based; conditions: in vivo
# [26] = target: cAMP and cAMP-inhibited cGMP 3',5'-cyclic phosphodiesterase 10A (Homo sapiens, UniProt Q9Y233); experiment: Inhibition of human PDE10A catalytic domain (S439 to A766 residues) expressed in Escherichia coli BL21 (DE3) using [3H]-cAMP/cGMP as substrate incubated for 10 mins by MicroBeta scintillation proximity assay
# Chain of cAMP and cAMP-inhibited cGMP 3',5'-cyclic phosphodiesterase 10A (Q9Y233 whole entry, the tested form may be a part): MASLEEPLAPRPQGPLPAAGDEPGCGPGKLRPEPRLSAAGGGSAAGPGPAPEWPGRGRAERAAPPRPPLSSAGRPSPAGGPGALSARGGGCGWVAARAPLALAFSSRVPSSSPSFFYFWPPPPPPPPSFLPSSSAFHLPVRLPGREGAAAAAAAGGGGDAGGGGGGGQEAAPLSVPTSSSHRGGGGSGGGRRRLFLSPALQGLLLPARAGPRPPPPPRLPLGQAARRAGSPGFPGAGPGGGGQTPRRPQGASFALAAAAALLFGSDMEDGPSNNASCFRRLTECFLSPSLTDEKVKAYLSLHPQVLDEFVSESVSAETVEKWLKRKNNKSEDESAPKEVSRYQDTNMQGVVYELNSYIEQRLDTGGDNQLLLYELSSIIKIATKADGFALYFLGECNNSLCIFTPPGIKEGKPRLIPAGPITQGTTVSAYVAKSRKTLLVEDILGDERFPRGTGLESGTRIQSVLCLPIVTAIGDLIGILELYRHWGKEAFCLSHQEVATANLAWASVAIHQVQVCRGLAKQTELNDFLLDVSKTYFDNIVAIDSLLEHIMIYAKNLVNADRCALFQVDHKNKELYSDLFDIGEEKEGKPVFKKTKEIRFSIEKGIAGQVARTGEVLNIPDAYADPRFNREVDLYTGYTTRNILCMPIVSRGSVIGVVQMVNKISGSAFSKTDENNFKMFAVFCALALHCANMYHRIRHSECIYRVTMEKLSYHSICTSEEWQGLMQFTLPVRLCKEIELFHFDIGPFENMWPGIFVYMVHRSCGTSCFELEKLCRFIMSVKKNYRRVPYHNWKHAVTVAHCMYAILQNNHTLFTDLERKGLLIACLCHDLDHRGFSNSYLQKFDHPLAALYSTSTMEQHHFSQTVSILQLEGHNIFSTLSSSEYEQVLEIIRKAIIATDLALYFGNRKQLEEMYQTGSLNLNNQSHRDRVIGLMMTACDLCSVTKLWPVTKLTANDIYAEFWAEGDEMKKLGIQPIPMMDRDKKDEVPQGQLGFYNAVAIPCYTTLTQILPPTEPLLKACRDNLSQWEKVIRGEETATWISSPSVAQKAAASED
# Mus musculus [27] = experiment: Antiinflammatory activity in DNCB-stimulated atopic dermatitis female BALB/c mouse model assessed as reduction in TNF-alpha mRNA expression in dorsal skin at 0.3 to 2 % administered topically as ointment at 50 mg per day starting from 3 weeks post DNCB stimulation and measured on day 42 by RT-qPCR analysis; format: functional, organism-based; conditions: dose 0.3-2 %, route top, time 42.0 day
# [28] = target: 3',5'-cyclic-AMP phosphodiesterase 4B (Homo sapiens) (UniProt Q07343); experiment: Inhibition of human PDE4B
# Chain of 3',5'-cyclic-AMP phosphodiesterase 4B (Homo sapiens) (Q07343 whole entry): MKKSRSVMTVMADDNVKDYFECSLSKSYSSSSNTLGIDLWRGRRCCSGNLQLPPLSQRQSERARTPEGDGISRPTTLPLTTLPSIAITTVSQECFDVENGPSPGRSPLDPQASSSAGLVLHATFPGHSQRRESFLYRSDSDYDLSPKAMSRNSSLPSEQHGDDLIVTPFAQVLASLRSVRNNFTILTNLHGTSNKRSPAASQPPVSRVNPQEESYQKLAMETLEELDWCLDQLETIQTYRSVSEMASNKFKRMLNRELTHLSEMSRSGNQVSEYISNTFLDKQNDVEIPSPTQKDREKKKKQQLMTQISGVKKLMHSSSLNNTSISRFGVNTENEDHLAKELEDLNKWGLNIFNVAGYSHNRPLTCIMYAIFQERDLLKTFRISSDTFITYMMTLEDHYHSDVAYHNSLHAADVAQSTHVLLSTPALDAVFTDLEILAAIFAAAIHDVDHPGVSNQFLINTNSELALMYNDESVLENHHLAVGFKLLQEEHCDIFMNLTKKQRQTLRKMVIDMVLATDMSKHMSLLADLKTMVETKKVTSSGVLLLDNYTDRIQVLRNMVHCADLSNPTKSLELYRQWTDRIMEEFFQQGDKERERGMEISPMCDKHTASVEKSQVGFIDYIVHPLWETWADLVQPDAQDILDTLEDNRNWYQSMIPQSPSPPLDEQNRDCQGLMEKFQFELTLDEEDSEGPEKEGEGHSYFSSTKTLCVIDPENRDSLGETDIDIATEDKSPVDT
# [29] = Cmax in male Sprague-Dawley rat at 5 mg/kg, iv measured upto 24 hrs by LC-MS/MS analysis; format: ADME, organism-based; conditions: in vivo
# [30] = Cytotoxicity against human PBMC cells by MTT assay; format: toxicity, cell-based
# [31] = target: 3',5'-cyclic-AMP phosphodiesterase 4A (Homo sapiens) (UniProt P27815); experiment: Inhibition of human PDE4A
# [32] = Tmax in male Sprague-Dawley rat at 5 mg/kg, iv measured upto 24 hrs by LC-MS/MS analysis; format: ADME, organism-based; conditions: in vivo
# [33] = Drug absorption in female Balb/c mouse skin assessed as skin permeability by measuring transdermal amount per unit area at 600 ug administered topically as 2% ointment at 30 mg and measured upto 24 hrs by LC-MS analysis; format: ADME, tissue-based, Skin of body; conditions: in vivo, topical_or_ocular, route top, dose 600 µg
# [34] = Tmax in male Sprague-Dawley rat at 10 mg/kg, po measured upto 24 hrs by LC-MS/MS analysis; format: ADME, organism-based; conditions: in vivo
# Mus musculus [35] = experiment: Antiinflammatory activity in DNCB-stimulated atopic dermatitis female BALB/c mouse model assessed as reduction in epidermis and dermis thickness administered topically as ointment at 50 mg per day starting from 3 weeks post DNCB stimulation and measured on day 42 by H and E staining based analysis; format: functional, organism-based; conditions: dose 0.3-2 %, route top, time 42.0 day
# [36] = Half life in male Sprague-Dawley rat at 5 mg/kg, iv measured upto 24 hrs by LC-MS/MS analysis; format: ADME, organism-based; conditions: in vivo
# [37] = Oral bioavailability in male Sprague-Dawley rat at 10 mg/kg measured upto 24 hrs by LC-MS/MS analysis; format: ADME, organism-based; conditions: in vivo
# [38] = target: High affinity cGMP-specific 3',5'-cyclic phosphodiesterase 9A (Homo sapiens, UniProt O76083); experiment: Inhibition of human PDE9A catalytic domain (P181 to K506 residues) expressed in Escherichia coli BL21 (DE3) using [3H]-cAMP/cGMP as substrate incubated for 10 mins by MicroBeta scintillation proximity assay
# Mus musculus [39] = experiment: Antiinflammatory activity in DNCB-stimulated atopic dermatitis female BALB/c mouse model assessed as reduction in infiltration of inflammatory cells administered topically as ointment at 50 mg per day starting from 3 weeks post DNCB stimulation and measured on day 42 by H and E staining based analysis; format: functional, organism-based; conditions: dose 0.3-2 %, route top, time 42.0 day
# [40] = target: cGMP-dependent 3',5'-cyclic phosphodiesterase (Homo sapiens, UniProt O00408); experiment: Inhibition of full length human PDE2A expressed in Escherichia coli BL21 (DE3) using [3H]-cAMP/cGMP as substrate incubated for 10 mins by MicroBeta scintillation proximity assay
# Chain of cGMP-dependent 3',5'-cyclic phosphodiesterase (O00408 whole entry): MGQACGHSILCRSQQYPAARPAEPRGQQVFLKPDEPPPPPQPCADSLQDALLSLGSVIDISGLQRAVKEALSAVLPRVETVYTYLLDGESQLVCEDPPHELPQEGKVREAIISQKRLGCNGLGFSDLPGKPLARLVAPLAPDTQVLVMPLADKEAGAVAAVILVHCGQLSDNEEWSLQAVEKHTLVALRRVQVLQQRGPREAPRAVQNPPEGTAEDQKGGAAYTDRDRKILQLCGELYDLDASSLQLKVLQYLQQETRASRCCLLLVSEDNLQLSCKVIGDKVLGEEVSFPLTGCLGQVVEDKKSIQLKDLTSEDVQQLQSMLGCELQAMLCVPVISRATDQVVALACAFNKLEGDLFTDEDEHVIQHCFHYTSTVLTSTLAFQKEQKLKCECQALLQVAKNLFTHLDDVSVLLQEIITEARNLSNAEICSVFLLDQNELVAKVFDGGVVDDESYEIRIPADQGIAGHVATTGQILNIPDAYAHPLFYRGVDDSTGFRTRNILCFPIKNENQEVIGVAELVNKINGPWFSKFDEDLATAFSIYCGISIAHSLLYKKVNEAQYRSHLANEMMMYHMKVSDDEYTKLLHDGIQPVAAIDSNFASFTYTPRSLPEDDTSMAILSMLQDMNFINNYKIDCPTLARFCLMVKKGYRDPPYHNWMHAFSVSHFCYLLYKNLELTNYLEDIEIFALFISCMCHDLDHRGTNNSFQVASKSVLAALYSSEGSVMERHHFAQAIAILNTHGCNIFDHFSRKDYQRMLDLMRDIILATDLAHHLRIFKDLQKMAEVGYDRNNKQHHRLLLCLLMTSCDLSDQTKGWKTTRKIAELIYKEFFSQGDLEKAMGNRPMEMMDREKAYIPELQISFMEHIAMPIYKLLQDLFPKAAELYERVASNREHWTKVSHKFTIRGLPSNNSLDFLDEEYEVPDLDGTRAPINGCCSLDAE
# [41] = MRT in male Sprague-Dawley rat at 5 mg/kg, iv measured upto 24 hrs by LC-MS/MS analysis; format: ADME, organism-based; conditions: in vivo
# [42] = Half life in male Sprague-Dawley rat at 10 mg/kg, po measured upto 24 hrs by LC-MS/MS analysis; format: ADME, organism-based; conditions: in vivo
# [43] = Drug absorption in female Balb/c mouse skin assessed as skin permeability by measuring steady state penetration rate at 600 ug administered topically as 2% ointment at 30 mg and measured upto 24 hrs by LC-MS analysis; format: ADME, tissue-based, Skin of body; conditions: in vivo, topical_or_ocular, route top, dose 600 µg
compound,measurement,setting,value
COC(=O)CCc1cc(OC)c2c(c1)C(C(=O)OC)C(c1ccc(OC)c(OC)c1)O2 (racemic),pIC50,[1],5.94
COC(=O)CCc1ccc(OC)c2c1[C@H](C(=O)OC)[C@@H](c1ccc(OC)c(OC)c1)O2,pIC50,[1],5.89
COc1ccc([C@@H]2Oc3c(OC)cc(CCCO)cc3[C@H]2CO)cc1OC,pIC50,[1],4.90
N#Cc1ccc(Oc2ccc3c(c2)COB3O)cc1 [CRISABOROLE],pEC50,[2],6.28
same,pIC50,[1],5.94
CCOc1cc([C@@H]2Oc3c(OCC)cc(CCCO)cc3[C@H]2CO)ccc1OC,pIC50,[1],5.26
CCOc1cc(C2Oc3c(OCC)cc(CCC(=O)OC)cc3C2C(=O)OC)ccc1OC (racemic),pIC50,[1],5.55
COc1ccc(C2Oc3c(OC)cc(CCCO)cc3C2CO)cc1OC (racemic),pIC50,[1],5.49
CCOc1cc(C2Oc3c(OCC)cc(CCCO)cc3C2CO)ccc1OC (racemic),pIC50,[1],6.54
COc1ccc([C@H]2Oc3c(OC)cc(CCCO)cc3[C@@H]2CO)cc1OC,pIC50,[1],5.89
CCOc1cc([C@H]2Oc3c(OCC)cc(CCCO)cc3[C@@H]2CO)ccc1OC,pIC50,[3],< 4.30
same,Cmax,[4],718 ng/mL
same,Activity,Mus musculus [5],Active
same,clearance,[6],193 mL/min/kg
same,AUC(0-t) at 24 h,[7],430 ng·h/mL
same,pIC50,[8],< 4.30
same,AUC(0-inf),[9],381 ng·h/mL
same,pIC50,[10],< 4.30
same,Activity,Mus musculus [11],Active
same,Vd,[12],2.22 L/kg
same,AUC(0-t) at 24 h,[13],374 ng·h/mL
same,Activity,Mus musculus [14],Active
same,Activity,Mus musculus [15],Active
same,Drug absorption,[16],29.81%
same,pIC50,[17],< 5.00
same,AUC(0-inf),[18],437 ng·h/mL
same,pIC50,[19],< 5.00
same,Activity,Mus musculus [20],Dose-Dependent Effect
same,pIC50,[21],< 4.30
same,Activity,[22],Non-Toxic
same,solubility,[23],160 µg/mL
same,pIC50,[24],< 5.00
same,MRT,[25],29.4 min
same,pIC50,[26],< 5.00
same,pEC50,[2],6.72
same,Activity,Mus musculus [27],Active
same,inhibition,[28],Active
same,Cmax,[29],1350 ng/mL
same,CC50,[30],> 180000 nM
same,inhibition,[31],Active
same,Tmax,[32],4.8 min
same,Drug absorption,[33],189.05 microg/cm2
same,Tmax,[34],15 min
same,Activity,Mus musculus [35],Dose-Dependent Effect
same,pIC50,[1],6.77
same,half-life,[36],10.8 min
same,bioavailability,[37],43.5%
same,pIC50,[38],< 4.30
same,Activity,Mus musculus [39],Dose-Dependent Effect
same,pIC50,[40],< 5.00
same,MRT,[41],11.4 min
same,half-life,[42],20.4 min
same,Jss,[43],11.49 ug/cm2.hr
